According to BindingDB's records for doi:10.1016/s0960-894x(00)00136-0 (Iowa State University, 2000):
pIC50: −log10 of the molar value.

Assays:
[1] = target: Endothelin receptor type B (rabbit); assay: Tested for binding affinity towards rabbit Endothelin B receptor
[2] = target: Endothelin-1 receptor (rabbit); assay: Tested for binding affinity towards rabbit Endothelin A receptor

pIC50 [1]: 4.15
pIC50 [2]: 4.30
Structure (SMILES): C/C=C/C=C/C(=O)O[C@@H]1C=C2COC(O)[C@]2(O)[C@@]2(C)CCCC(C)(C)C12 (stereo partly drawn) [(2E,4E)-Hexa-2,4-dienoic acid (5R,9aS,9bS)-1,9b-dihydroxy-6,6,9a-trimethyl-1,3,5,5a,6,7,8,9,9a,9b-decahydro-naphtho[1,2-c]furan-5-yl ester]
